SMILES strings stand for the structures.

By AUC(0-inf) is commonly meant the area under the concentration-time curve extrapolated to infinity. What is called bioavailability is dose-corrected exposure relative to a reference, in per cent. A high value points to good availability. A word on the Tmax: it is the time from dosing to the highest level. The Cmax is the peak of the concentration-time curve.

Data set [1] concerns the target T1, human soluble expoxide hydrolase (sEH) (Homo sapiens, UniProt P34913).
T1 construct: purchased Cayman Chemicals
T1 sequence (P34913 1-555): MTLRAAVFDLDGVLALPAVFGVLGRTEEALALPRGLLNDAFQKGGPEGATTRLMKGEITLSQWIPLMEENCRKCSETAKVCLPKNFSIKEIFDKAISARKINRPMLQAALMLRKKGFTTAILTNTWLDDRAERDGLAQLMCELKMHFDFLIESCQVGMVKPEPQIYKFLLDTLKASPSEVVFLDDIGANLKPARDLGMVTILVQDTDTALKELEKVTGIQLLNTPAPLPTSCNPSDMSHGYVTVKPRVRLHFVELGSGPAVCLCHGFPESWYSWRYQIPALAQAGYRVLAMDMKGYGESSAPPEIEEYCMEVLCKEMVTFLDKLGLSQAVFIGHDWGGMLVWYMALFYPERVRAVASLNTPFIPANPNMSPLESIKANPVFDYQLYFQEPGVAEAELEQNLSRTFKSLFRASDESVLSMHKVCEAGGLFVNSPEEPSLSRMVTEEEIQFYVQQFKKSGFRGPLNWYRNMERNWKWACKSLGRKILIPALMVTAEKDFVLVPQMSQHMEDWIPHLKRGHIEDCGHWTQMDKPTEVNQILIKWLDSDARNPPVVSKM
The data set is described as follows: In vitro inhibition of recombinant human soluble epoxide hydrolase. The data set is classed as biochemical. As to conditions: 10 μM compound, 50 μM 14,15-EET substrate, vs vehicle control.
Experimental: A selection of compounds was tested for the ability to inhibit human soluble expoxide hydrolase (sEH). […] Briefly, the assay was performed at 37° C. for 20 min in a final volume of 100 μL potassium phosphate buffer (0.1 M, pH 7.2) containing 50 μM 14,15-EET as substrate. The reactions were started by adding enzyme (107.5 ng per reaction, 12.06 U/ml activity, Cayman Chemicals) and terminated with 300 μl ethyl acetate. […] Metabolically robust analogs shown in FIG. 5 were tested at final concentration of 10 μM for potency of sEH-inhibition compared to vehicle control (1% DMSO), n=2-4.

Data set [2] has as its system mouse neonatal primary cardiomyocyte culture. The data set is described as follows: Oxygen-glucose deprivation/reoxygenation injury in primary cardiomyocytes. The data set is classed as cell-based. As to conditions: for amelioration of loss of cell number: Hoechst 33342 staining. Here is the method:
In vitro ischemic injury was induced in mouse neonatal primary cardiomyocyte culture by oxygen-glucose deprivation for 18 hours and a 24 hours reoxygenation period in a humidified incubator with 5% CO2/95% air. Cardiomyocytes were incubated with the test compounds during 4 hours prior to the oxygen glucose depriviation (OGD) induction. The test compounds were also present during the OGD insult and during the 24 h-reoxygenation period. After the reoxygenation period, cell number was assessed by Hoechst 33342 staining, apoptosis was measured by determining caspase 3/7 activation, and cell membrane integrity or necrosis was measured as LDH release.
Data were expressed as mean±SD of three separate wells and individual comparisons were made with Student's t-test (SigmaPlot 9.0 program). The results were normalized to the normoxia-treated cells. Statistical significance (*) p<0.05 as compared to normoxia/DMSO-treated cells and (§) hypoxia/DMSO treated cells. Results

The nature of data set [3]: Plasma pharmacokinetics after single intravenous and oral administration. Details: species or system male C57BL/6 mice. The settings on record: male, C57BL/6, mouse, in vivo. As to the method: To gain insight into pharmacological properties of synthetic 17,18-EEQ agonists pharmacokinetic studies were performed with two selected compounds (Comp-02 and Comp-06). These compounds were pharmacologically evaluated in plasma after single intravenous and oral administration. Therefore, male C57BL/6 mice (Janvier Labs (France), n=12 per group) were administered to the test item at a dose of 2 mg/kg (i.v.) and 8 mg/kg (p.o.), respectively. Intravenous application of Comp-02 (sodium salt in isotonic salt solution) and Comp-06 (free acid in DMSO/PEG400 20:80) was performed via the tail vein, and for oral administration via gavage. […] Blood sampling was of 100 μl were obtained at two different time point for each mouse (0.083/2 h, 0.25/4 h, 0.5/8 h and 1/24 h). Biological samples were subjected to an extraction procedure (40 μl Acetonitril+22.4 μl sample, shaking, 10 min centrifugation at 6000×g at room temperature, dilution of 50 μl supernatant 1:1 with water). For analysis 20 μl of sample were injected into the LC-MS, Accela 1250 UHPLC system, Accela Open Autosampler, Q-Exactive mass spectrometer (Thermo Fisher Scientific). Appropriate samples were used as controls: zero sample, calibration standard and QC sample. The pharmacokinetic analysis were performed applying a non-compartment model using the Kinetica 5.0 software (Thermo Scientific, Waltham, USA). All given parameters were obtained by trapezoid area calculation.

Data set [4] has as its system spontaneously beating neonatal rat cardiomyocytes (NRCMs). In words: Spontaneous beating rate of neonatal rat cardiomyocytes (anti-arrhythmic cell model). The class given is cell-based. The settings on record: 20 nM or 30 nM; comparison between analogs. Here is the method: The compounds include analogues being part of the invention (Comp-01 to Comp-05), which were synthesized as described in example 1, and additional related compounds (Comp-06 to Comp-13). A 1000-fold stock solutions in ethanol of the test compounds was prepared before use.
In order to measure the biological activities of metabolically robust analogs of CYP-eicosanoids an established cell model was used (Kang, J. X. et al., Proc Natl Acad Sci USA, 1994. 91(21): p. 9886-90). The spontaneously beating neonatal rat cardiomyocytes (NRCMs) are a model system to investigate anti-arrhythmic effects of test-compounds. […]
Isolation and cultivation of NRCMs were performed as described previously (Wallukat, G et al., J Clin Invest. 1999; 103: 945-952; Falck, J R et al., J Med Chem. 2011 Jun. 23; 54(12):4109-18). […] After four hours of incubation cells were adopted for 10 min to 31° C. and beating was recorded using an inverted microscope (Leica DM IRB) equipped with a CCD camera and coupled to an IonOptix (software: IonWizard6, IonOptix). To determine the basal rate, 6 to 8 individual clusters were selected and the number of contractions was counted for 15 sec. After that, the compound to be tested was added to the culture and the beating rate of the same clusters was monitored 5 min later again. […]

As for `CNC(=O)C(=O)NCCCC/C=C\CCCCCCCOCC(=O)O` [Comp-02, 2-((13-(2-(methylamino)-2-oxoacetamido)tridec-8(Z)-en-1-yl)oxy)acetic acid], the “inhibition of human sEH” value in data set [1] is given as “did not show sEH-inhibition”. In data set [2] (30 nM), the “reduction of cellular necrosis (LDH-release)” value is 43% and the “amelioration of loss of cell number” value is 35%. Also, in data set [2] (10 μM), the “reduction of cellular necrosis (LDH-release)” value is on record as 45% and the “amelioration of loss of cell number” value was 44%. The “protection against OGD-induced damage, in words” value in data set [2] (18 h OGD, 24 h reoxygenation) is “partially protected against OGD-induced damage”. In data set [2] (caspase 3/7 activation, concentration not given), the “reduction of OGD-induced apoptosis” value came to 43%. Moreover, the “reduction of OGD-induced necrosis” value in data set [2] (concentration not given) is listed as 29%. In data set [3] (iv, 2 mg/kg), this compound showed an AUC(0-inf) of 524 ng·h/mL and a bioavailability of 100%. Further, in data set [3] (po, 8 mg/kg), the AUC(0-inf) worked out at 1820 ng·h/mL; the “Cmax, maximal observed plasma concentration” value was determined as 903.8 ng/mL; the Tmax was determined as 18 min; the bioavailability was 87%. This compound also came in with a Cmax in data set [3] (po, 8 mg/kg, Cmax, maximal observed plasma concentration) of 903 ng/mL. For the same compound, the “negative chronotropic effect on NRCMs, in words” value in data set [4] is “equal potency”.

The values are drawn from patent US11096910B2, “Metabolically robust analogs of CYP-eicosanoids for the treatment of cardiac disease” (OMEICOS THERAPEUTICS GMBH, priority 2015, dated 2021).
